Measurements: patent US20170044104A1, “NEW PESTICIDAL COMPOUNDS AND USES” (BAYER CROPSCIENCE AG, priority 2013, published 2017)
Where two headings read alike, the source gives them in different places.

Assays:
Cooperia curticei = Cooperia curticei (COOPCU) larval mortality assay; settings: 120 h, after 5 days, read-out: activity (percentage of larval mortality); for mortality at 20 ppm: application rate 20 ppm
Description: (§1) Solvent: dimethyl sulfoxide
(§2) To produce a suitable preparation of active compound, 10 mg of active compound are dissolved in 0.5 ml solvent, and the concentrate is diluted with “Ringer's solution” to the desired concentration.
Approximately 40 nematode larvae (Cooperia curticei) are transferred into a test tube containing the compound solution.
After 5 days percentage of larval mortality is recorded. 100% efficacy means all larvae are killed; 0% efficacy means no larvae are killed.

[1] = test system: Nippostrongylus brasiliensis; assay: Nippostrongylus brasiliensis (NIPOBR) assay, acetylcholine esterase readout; settings: 10 ppm (10 μg/ml), adult worms, read-out: activity (reduction of AChE compared to negative control)
Description: Adult Nippostrongylus brasiliensis were washed with saline buffer containing 100 U/ml penicillin, 0.1 mg/ml streptomycin and 2.5 μg/ml amphotericin B. Test compounds were dissolved in DMSO and worms were incubated in medium in a final concentration of 10 μg/ml (10 ppm). An aliquot of the medium was used to determine the acetylcholine esterase activity in comparison to a negative control. The principle of measuring acetylcholine esterase as readout for anthelmintic activity was described in Rapson et al (1986) and Rapson et al (1987).

Meloidogyne incognita = Meloidogyne incognita (MELGIN) gall formation assay; assay type: in vivo; settings: 336 h, read-out: nematicidal activity (percentage of gall formation)
Description: Solvent: 125.0 parts by weight of acetone
To produce a suitable preparation of active compound, 1 part by weight of active compound is mixed with the stated amount of solvent, and the concentrate is diluted with water to the desired concentration.
Vessels are filled with sand, a solution of the active ingredient, a suspension containing eggs and larvae of the southern root-knot nematode (Meloidogyne incognita) and salad seeds. The salad seeds germinate and the seedlings grow. Galls develop in the roots.
After 14 days the nematicidal activity is determined on the basis of the percentage of gall formation. 100% means no galls were found and 0% means the number of galls found on the roots of the treated plants was equal to that in untreated control plants.

Haemonchus contortus = Haemonchus contortus (HAEMCO) larval mortality assay; settings: 120 h; for mortality at 20 ppm: application rate 20 ppm, after 5 days, read-out: activity (percentage of larval mortality); for Emax at 0.8 ppm / Emax at 4 ppm / Emax at 20 ppm: comparative test, 5 dat, read-out: % Efficacy
Description: as §1, §2
Approximately 40 larvae of the red stomach worm (Haemonchus contortus) are transferred into a test tube containing compound solution.
After 5 days percentage of larval mortality are recorded. 100% efficacy means all larvae are killed, 0% efficacy means no larvae are killed.

[2] = application rate 20 ppm, after 14 days, salad seedlings

| Compound | mortality at 20 ppm (Cooperia curticei) [%] | inhibition at 10 ppm [1] [%] | pest or weed control at 20 ppm (Meloidogyne incognita) [%] | mortality at 20 ppm (Haemonchus contortus) [%] | Emax at 0.8 ppm (Haemonchus contortus) [%] | Emax at 4 ppm (Haemonchus contortus) [%] | Emax at 20 ppm (Haemonchus contortus) [%] | pest or weed control at 20 ppm (Meloidogyne incognita; [2]) [%] | mortality at 4 ppm (Cooperia curticei; application rate 4 ppm) [%] |
| --- | --- | --- | --- | --- | --- | --- | --- | --- | --- |
| O=C(NCCc1ccc(-c2ccc(F)nc2)cc1Cl)c1ccccc1C(F)(F)F [Example 1-44] | 100 | ≥ 60 | 90 | 100 | 100 | 100 | 100 | – | – |
| O=C(NCCc1ccc(-c2ccc(Cl)nc2)cc1Cl)c1ccccc1C(F)(F)F [Example 1-66] | 100 | – | – | 100 | – | – | – | 90 | – |
| O=C(NCC(F)(F)c1ccc(-c2ccc(F)nc2)cc1F)c1ccccc1C(F)(F)F [Example 1-106] | 100 | ≥ 60 | 90 | 100 | – | – | – | – | – |
| O=C(NCCc1cccc(-c2ccc(Cl)nc2)c1)c1ccccc1C(F)(F)F [Example 1-9] | 100 | ≥ 60 | – | – | – | – | – | – | – |
| O=C(NCC(F)c1ccc(-c2ccc(F)nc2)cc1Cl)c1cccnc1C(F)(F)F (centres unmarked) [Example 1-88] | 100 | ≥ 60 | 100 | 100 | – | – | – | – | – |
| O=C(NCCc1ccc(-c2cncc(F)c2)cc1)c1cccnc1C(F)(F)F [Example 1-20] | 100 | – | – | 80 | – | – | – | 90 | – |
| O=C(NCC(F)c1ccc(-c2cncc(Cl)c2)cc1Cl)c1nccnc1C(F)(F)F (centres unmarked) [Example 1-82] | 100 | ≥ 60 | 100 | 100 | – | – | – | – | – |
| O=C(NCC(F)(F)c1ccc(-c2cncc(Cl)c2)cc1C(F)(F)F)c1ccccc1C(F)(F)F [Example 1-120] | 100 | – | – | 100 | – | – | – | 100 | – |
| O=C(NCC(F)c1ccc(-c2ccnc(F)c2)cc1Cl)c1cccnc1C(F)(F)F (centres unmarked) [Example 1-81] | 100 | – | – | 100 | – | – | – | 100 | – |
| O=C(NCC(F)(F)c1ccc(-c2ccc(C(F)(F)F)nc2)cc1Cl)c1ccccc1C(F)(F)F [Example 1-94] | 100 | – | – | 100 | – | – | – | 100 | – |
| O=C(NCC(F)(F)c1ccc(-c2cncc(Cl)c2)cc1F)c1ccccc1C(F)(F)F [Example 1-107] | 100 | ≥ 60 | – | 100 | – | – | – | – | – |
| O=C(NCC(F)(F)c1ccc(-c2ccc(Cl)nc2)cc1C(F)(F)F)c1ccccc1C(F)(F)F [Example 1-126] | 100 | – | – | 100 | – | – | – | 90 | – |
| O=C(NCC(F)(F)c1ccc(-c2cncc(F)c2)cc1Cl)c1ccccc1C(F)(F)F [Example 1-96] | 100 | ≥ 60 | – | 100 | – | – | – | – | – |
| O=C(NCC(F)c1ccc(-c2ccc(Cl)nc2)cc1Cl)c1nccnc1C(F)(F)F (centres unmarked) [Example 1-85] | 100 | – | – | 100 | – | – | – | 100 | – |
| O=C(NCCc1ccc(-c2cncc(Cl)c2)cc1)c1cccnc1C(F)(F)F [Example 1-16] | 100 | – | – | 80 | – | – | – | 90 | – |
| O=C(NCCc1ccc(-c2ccc(Cl)nc2Cl)cc1Cl)c1ccccc1C(F)(F)F [Example 1-49] | 100 | ≥ 60 | – | 90 | – | – | – | – | – |
| Cn1cc(-c2ccc(CCNC(=O)c3ccccc3C(F)(F)F)c(Cl)c2)cn1 [Example 1-47] | 100 | – | – | 100 | 80 | 100 | 100 | 100 | – |

| Compound | mortality at 20 ppm (Cooperia curticei) [%] | inhibition at 10 ppm [1] [%] | pest or weed control at 20 ppm (Meloidogyne incognita) [%] | mortality at 20 ppm (Haemonchus contortus) [%] | Emax at 0.8 ppm (Haemonchus contortus) [%] | Emax at 4 ppm (Haemonchus contortus) [%] | Emax at 20 ppm (Haemonchus contortus) [%] | pest or weed control at 20 ppm (Meloidogyne incognita; [2]) [%] | mortality at 4 ppm (Cooperia curticei; application rate 4 ppm) [%] |
| --- | --- | --- | --- | --- | --- | --- | --- | --- | --- |
| O=C(NCC(F)(F)c1ccc(-c2cncc(F)c2)cc1F)c1ccccc1C(F)(F)F [Example 1-111] | 100 | ≥ 60 | – | 100 | – | – | – | – | – |
| O=C(NCC(F)(F)c1ccc(-c2cc(Cl)nc(Cl)c2)cc1Cl)c1ccccc1C(F)(F)F [Example 1-92] | 100 | ≥ 60 | – | 100 | – | – | – | – | – |
| COc1ccc(-c2ccc(C(F)(F)CNC(=O)c3ccccc3C(F)(F)F)c(Cl)c2)cn1 [Example 1-90] | 100 | ≥ 60 | – | 100 | – | – | – | – | – |
| O=C(NCCc1cccc(-c2ccc(OCC(F)(F)F)nc2)c1)c1ccccc1C(F)(F)F [Example 1-1] | 80 | ≥ 60 | – | 80 | – | – | – | – | – |
| O=C(NCCc1ccc(-c2cncc(Cl)c2)cc1)c1ccccc1C(F)(F)F [Example 1-53] | 100 | ≥ 60 | – | 100 | – | – | – | – | – |
| O=C(NCC(F)c1ccc(-c2ccc(Cl)nc2)cc1Cl)c1cccnc1C(F)(F)F (centres unmarked) [Example 1-86] | 100 | – | – | 100 | – | – | – | 100 | – |
| O=C(NCC(F)(F)c1ccc(-c2ccc(F)nc2)cc1Cl)c1cccnc1C(F)(F)F [Example 1-104] | – | – | – | 90 | – | – | – | 100 | 100 |
| O=C(NCC(F)c1ccc(-c2cccnc2Cl)cc1Cl)c1ccccc1C(F)(F)F (centres unmarked) [Example 1-75] | 100 | ≥ 60 | – | 100 | – | – | – | – | – |
| Cc1ncccc1-c1ccc(CCNC(=O)c2ccccc2C(F)(F)F)c(Cl)c1 [Example 1-42] | 100 | – | – | 100 | – | – | – | 90 | – |
| O=C(NCCc1ccc(-c2cccnc2)cc1Cl)c1ccccc1C(F)(F)F [Example 1-33] | 100 | ≥ 60 | – | 100 | – | – | – | – | – |
| O=C(NCCc1ccc(-c2cncc(Cl)c2)cc1Cl)c1ccccc1C(F)(F)F [Example 1-45, N-{2-[2-chloro-4-(5-chloropyridin-3-yl)phenyl]ethyl}-2-(trifluoromethyl)benzamide] | 100 | ≥ 60 | – | 100 | 100 | 100 | 100 | – | – |
| CC(F)(CNC(=O)c1cccnc1C(F)(F)F)c1ccc(-c2cncc(F)c2)cc1Cl (centres unmarked) [Example 1-98] | 100 | ≥ 60 | – | 100 | – | – | – | – | – |
| O=C(NCCc1ccc(-c2ccccn2)cc1Cl)c1ccccc1C(F)(F)F [Example 1-39] | 100 | – | – | 100 | – | – | – | 100 | – |
| Cn1cc(-c2ccc(CCNC(=O)c3cccnc3C(F)(F)F)cc2)cn1 [Example 1-24] | 90 | – | – | – | – | – | – | 90 | – |
| O=C(NCC(F)(F)c1ccc(-c2ccc(F)nc2)cc1C(F)(F)F)c1ccccc1C(F)(F)F [Example 1-128] | 100 | – | – | 100 | – | – | – | 100 | – |
| O=C(NCC(F)(F)c1ccc(-c2cncc(Cl)c2)cc1Cl)c1ccccc1C(F)(F)F [Example 1-97] | 100 | ≥ 60 | – | 100 | – | – | – | – | – |
| O=C(NCC(F)c1ccc(-c2cccnc2Cl)cc1Cl)c1cccnc1C(F)(F)F (centres unmarked) [Example 1-80] | 100 | – | – | 100 | – | – | – | 90 | – |
